This passage reports IC50 results from PMC11444863 (Bioscience of Microbiota, Food and Health, 2024).

For this test, the target named is T1, Hyaluronidase from bovine testes (Bos taurus, UniProt Q2YDK3).
T1 sequence (Q2YDK3 36-553): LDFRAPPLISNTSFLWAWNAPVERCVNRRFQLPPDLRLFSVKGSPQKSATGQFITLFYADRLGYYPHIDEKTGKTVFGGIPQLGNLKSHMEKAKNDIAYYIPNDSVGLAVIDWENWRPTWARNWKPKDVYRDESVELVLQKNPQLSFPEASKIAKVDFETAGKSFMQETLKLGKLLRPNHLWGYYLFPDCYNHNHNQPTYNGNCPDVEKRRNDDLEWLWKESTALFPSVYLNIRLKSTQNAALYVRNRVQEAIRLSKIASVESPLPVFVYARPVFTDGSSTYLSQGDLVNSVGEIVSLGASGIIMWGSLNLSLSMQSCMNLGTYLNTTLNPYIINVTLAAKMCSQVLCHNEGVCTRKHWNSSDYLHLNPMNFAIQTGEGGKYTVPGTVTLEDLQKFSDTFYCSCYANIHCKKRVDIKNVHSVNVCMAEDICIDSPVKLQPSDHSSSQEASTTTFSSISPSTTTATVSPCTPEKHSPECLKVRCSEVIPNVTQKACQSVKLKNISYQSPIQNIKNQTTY
The test is described as follows: colorimetric hyaluronidase inhibition assay. In kind it is biochemical.

Compound `O=C(O)CCC(=O)C(=O)O` [AKG, α-ketoglutarate] yielded an IC50 of 2820 ± 38 µM. With `O=C(O)c1cc(=O)c2c(OCC(O)COc3cccc4oc(C(=O)O)cc(=O)c34)cccc2o1` [DSCG, disodium cromoglycate] the figure was 360 ± 41 µM.

The IC50 is the point on the concentration scale where inhibition reaches its midpoint.
